Assays:
[1] = tested on: animal test mode of ventricular failure; conditions: J Pharmacol Exp Ther 291(2) 799-811 (1999); Circ Res 85(4) 364-376 (1999); cited from earlier work
[2] = tested on: Dahl's salt-sensitive rat; assay: P-V curve of removed hearts under perfuse by Langendorff's method; type: ex vivo; conditions: compared with the control group; Langendorff perfusion
Procedure: In the above model of cardiac failure using Dahl's salt-sensitive rat, internal pressure and volume of left ventricle of hearts removed from 11, 15, and 17 weeks rats were measured under perfuse by Langendorff's method.

mice = assay: Toxicity, oral administration to mice; type: in vivo
Procedure: It was considered that the toxicities of the compounds in the present invention could be very low and safe to use as a medicine. For example, the lowest lethal dose in oral administration of compound (II) to mice was 2000 mg/kg.

SMILES	effect on animal test model of ventricular failure [1]	P-V curve (internal pressure and volume of left ventricle) [2]	lowest lethal dose (mice) [mg/kg]
CC(C)[C@H](NS(=O)(=O)c1ccc(-c2ccc(Br)cc2)cc1)C(=O)O [PD166793]	effective	–	–
CCOCOC[C@H](C[C@H](C)C(=O)NO)NC(=O)c1ccc(Oc2ccccc2)cc1 [compound (II), N-hydroxy-5-ethoxymethyloxy-2(S)-methyl-4(S)-(4-phenoxybenzoyl)aminopentanamide]	–	shifts to the left side	2000

— patent US20040242694A1, “Remedial agent for cardiac failure” (priority 2001, published 2004)
